Assay [1] has as its system HCT-116. The assay can be described thus: Antiproliferative activity against human HCT-116 cells incubated for 72 hrs by MTT assay. The following applies: HCT-116, 72 h. It is filed as functional, cell-based.
The subject of assay [2] is BT-549. The assay can be described thus: Antiproliferative activity against human BT-549 cells incubated for 72 hrs by MTT assay. The format is functional, cell-based. The following applies: BT-549, 72 h. A general note: Formazan colour is commonly taken as a measure of viable cells.
For assay [3], the system named is A549. The assay can be described thus: Antiproliferative activity against human A549 cells incubated for 72 hrs by MTT assay. The following applies: A549, 72 h. It is filed as functional, cell-based.
Assay [4] concerns MDA-MB-231. The assay can be described thus: Antiproliferative activity against human MDA-MB-231 cells incubated for 72 hrs by MTT assay. The format is functional, cell-based. As to conditions: MDA-MB-231, 72 h.
For assay [5], the target named is Bromodomain-containing protein 4 (Homo sapiens, UniProt O60885). The assay can be described thus: Inhibition of BRD4 BD1 (unknown origin) incubated for 15 mins by TR-FRET method. (In TR-FRET formats the signal depends on donor and acceptor labels being close together.)
Assay [6] is described as follows: Binding affinity to recombinant PRC2 complex (unknown origin) incubated for 3 hrs in presence of SAM. Set-up: species or system Homo sapiens.

One may read the pIC50 as −log10 of the IC50, conventionally taken in molar units. The pKd is the Kd on a negative log10 scale, so that one unit is a factor of ten.

pIC50, pKd: −log10 of the molar value.

In the case of `Cc1cc(C)c(CNC(=O)c2cc(-c3ccc(N4CCN(C(=O)C[C@@H]5N=C(c6ccc(Cl)cc6)c6c(sc(C)c6C)-n6c(C)nnc65)CC4)cc3)cc3c2cnn3C(C)C)c(=O)[nH]1`, the pIC50 is 4.75 in assay [1], below 4.70 in assay [2], below 4.70 in assay [3] and below 4.70 in assay [4].

Take `Cc1cc(C)c(CNC(=O)c2cc(NCCCCNC(=O)C[C@@H]3N=C(c4ccc(Cl)cc4)c4c(sc(C)c4C)-n4c(C)nnc43)cc3c2cnn3C(C)C)c(=O)[nH]1`: the pIC50 in assay [1] was 4.99; in assay [2] it was 5.02; in assay [3], below 4.70; in assay [4] it was 4.87; in assay [5], 6.67.

Take `Cc1cc(C)c(CNC(=O)c2cc(N3CCN(C(=O)C[C@@H]4N=C(c5ccc(Cl)cc5)c5c(sc(C)c5C)-n5c(C)nnc54)CC3)cc3c2cnn3C(C)C)c(=O)[nH]1`: the pIC50 in assay [1] was below 4.70; in assay [2], 5.41; in assay [3], below 4.70; in assay [4], 4.96.

For `CCn1ncc2c(C(=O)NCc3c(C)cc(C)[nH]c3=O)cc(-c3ccc(N4CCN(C(=O)C[C@@H]5N=C(c6ccc(Cl)cc6)c6c(sc(C)c6C)-n6c(C)nnc65)CC4)nc3)cc21`, the negative-log IC50 (pIC50) in assay [1] is 5.18; in assay [2], 5.45; in assay [3] it was below 4.70; in assay [4] it was below 4.70.

As to `Cc1cc(C)c(CNC(=O)c2cc(-c3ccc(NC(=O)CNC(=O)C[C@@H]4N=C(c5ccc(Cl)cc5)c5c(sc(C)c5C)-n5c(C)nnc54)cc3)cc3c2cnn3C(C)C)c(=O)[nH]1`, the pIC50 in assay [1] is 5.54; in assay [2], 4.97; in assay [3] it was below 4.70; in assay [4], 5.91; in assay [5] it was 6.86.

In the case of `Cc1cc(C)c(CNC(=O)c2cc(-c3ccc(N4CCN(C(=O)C[C@@H]5N=C(c6ccc(Cl)cc6)c6c(sc(C)c6C)-n6c(C)nnc65)CC4)nc3)cc3c2cnn3C(C)C)c(=O)[nH]1`, the pIC50 in assay [1] is 5.64; in assay [2] it was 5.47; in assay [3], below 4.70; in assay [4], below 4.70.

For `Cc1cc(C)c(CNC(=O)c2cc(NCCCCCCNC(=O)C[C@@H]3N=C(c4ccc(Cl)cc4)c4c(sc(C)c4C)-n4c(C)nnc43)cc3c2cnn3C(C)C)c(=O)[nH]1`, the negative-log IC50 (pIC50) in assay [1] was 5.72; in assay [2] it was 5.30; in assay [3] it was 5.04; in assay [4] it was 5.49; in assay [5] it was 6.86. The pKd in assay [6] was 6.72.

Turning to `Cc1cc(C)c(CNC(=O)c2cc(-c3ccc(NC(=O)CCNC(=O)C[C@@H]4N=C(c5ccc(Cl)cc5)c5c(sc(C)c5C)-n5c(C)nnc54)cc3)cc3c2cnn3C(C)C)c(=O)[nH]1`, the pIC50 in assay [1] was below 4.70; in assay [2] it was below 4.70; in assay [3] it was below 4.70; in assay [4], 5.21; in assay [5], 6.91. Also, the negative logarithm of the Kd (pKd) in assay [6] was 6.33.

As for `Cc1cc(C)c(CNC(=O)c2cc(N3CCC(CNC(=O)C[C@@H]4N=C(c5ccc(Cl)cc5)c5c(sc(C)c5C)-n5c(C)nnc54)CC3)cc3c2cnn3C(C)C)c(=O)[nH]1`, the negative-log IC50 (pIC50) in assay [1] was 5.25; in assay [2] it was 5.49; in assay [3], 5.05; in assay [4], 5.68; in assay [5] it was 6.45. Moreover, the negative logarithm of the Kd (pKd) in assay [6] is 6.88.

Regarding `Cc1cc(C)c(CNC(=O)c2cc(-c3ccc(NC(=O)CCCCNC(=O)C[C@@H]4N=C(c5ccc(Cl)cc5)c5c(sc(C)c5C)-n5c(C)nnc54)cc3)cc3c2cnn3C(C)C)c(=O)[nH]1`, the negative logarithm of the IC50 (pIC50) in assay [1] was 5.20; in assay [2], 4.98; in assay [3], below 4.70; in assay [4] it was 5.66; in assay [5], 7.26. The negative logarithm of the Kd (pKd) in assay [6] is 6.17.

For `Cc1cc(C)c(CNC(=O)c2cc(NC3CCN(C(=O)C[C@@H]4N=C(c5ccc(Cl)cc5)c5c(sc(C)c5C)-n5c(C)nnc54)CC3)cc3c2cnn3C(C)C)c(=O)[nH]1`, the pIC50 in assay [1] is 5.37; in assay [2] it was 5.41; in assay [3], below 4.70; in assay [4] it was 5.09.

As to `Cc1cc(C)c(CNC(=O)c2cc(NCCCNC(=O)C[C@@H]3N=C(c4ccc(Cl)cc4)c4c(sc(C)c4C)-n4c(C)nnc43)cc3c2cnn3C(C)C)c(=O)[nH]1`, the negative-log IC50 (pIC50) in assay [1] was below 4.70; in assay [2] it was 4.94; in assay [3] it was below 4.70; in assay [4], 4.81; in assay [5], 6.69.

Regarding `Cc1cc(C)c(CNC(=O)c2cc(-c3ccc(N4CCN(C(=O)C[C@@H]5N=C(c6ccc(Cl)cc6)c6c(sc(C)c6C)-n6c(C)nnc65)CC4)nc3)cc3c2cnn3C)c(=O)[nH]1`, the pIC50 in assay [1] was below 4.70; in assay [2], 5.29; in assay [3], below 4.70; in assay [4], 4.93.

As for `Cc1cc(C)c(CNC(=O)c2cc(N3CCC4(CCN(C(=O)C[C@@H]5N=C(c6ccc(Cl)cc6)c6c(sc(C)c6C)-n6c(C)nnc65)C4)CC3)cc3c2cnn3C(C)C)c(=O)[nH]1`, the negative-log IC50 (pIC50) was 5.65 in assay [1], 5.44 in assay [2], 4.76 in assay [3] and 5.54 in assay [4].

For the compound `CCC(C)n1ncc2c(C(=O)NCc3c(C)cc(C)[nH]c3=O)cc(-c3ccc(N4CCN(C(=O)C[C@@H]5N=C(c6ccc(Cl)cc6)c6c(sc(C)c6C)-n6c(C)nnc65)CC4)nc3)cc21` (some centres undefined), the pIC50 in assay [1], in assay [2], in assay [3] and in assay [4] was below 4.70 each time.

Take `Cc1cc(C)c(CNC(=O)c2cc(-c3ccc(NC(=O)C[C@@H]4N=C(c5ccc(Cl)cc5)c5c(sc(C)c5C)-n5c(C)nnc54)cc3)cc3c2cnn3C(C)C)c(=O)[nH]1`: the pIC50 in assay [1], in assay [2], in assay [3], in assay [4] and in assay [5] was below 4.70 in each case.

For `Cc1cc(C)c(CNC(=O)c2cc(-c3ccc(NC(=O)CCCNC(=O)C[C@@H]4N=C(c5ccc(Cl)cc5)c5c(sc(C)c5C)-n5c(C)nnc54)cc3)cc3c2cnn3C(C)C)c(=O)[nH]1`, the pIC50 was below 4.70 in assay [1]; below 4.70 in assay [2]; below 4.70 in assay [3]; 5.12 in assay [4]; 6.86 in assay [5]. Further, the pKd in assay [6] was 6.42.

As for `CCCc1cc(C)[nH]c(=O)c1CNC(=O)c1cc(-c2ccc(N3CCN(C(=O)C[C@@H]4N=C(c5ccc(Cl)cc5)c5c(sc(C)c5C)-n5c(C)nnc54)CC3)nc2)cc2c1cnn2C(C)C`, the pIC50 in assay [1], in assay [2], in assay [3] and in assay [4] was below 4.70 each time.

As to `Cc1sc2c(c1C)C(c1ccc(Cl)cc1)=N[C@@H](CC(=O)OC(C)(C)C)c1nnc(C)n1-2`, the negative-log IC50 (pIC50) in assay [1] was 5.51; in assay [2], 5.41; in assay [3] it was 4.74; in assay [4], 5.21.

Turning to `Cc1cc(C)c(CNC(=O)c2cc(NCC3CCN(C(=O)C[C@@H]4N=C(c5ccc(Cl)cc5)c5c(sc(C)c5C)-n5c(C)nnc54)CC3)cc3c2cnn3C(C)C)c(=O)[nH]1`, the pIC50 was 5.66 in assay [1], 5.67 in assay [2], 5.34 in assay [3] and 5.51 in assay [4].

`Cc1cc(C)c(CNC(=O)c2cc(-c3ccc(CNC(=O)C[C@@H]4N=C(c5ccc(Cl)cc5)c5c(sc(C)c5C)-n5c(C)nnc54)cc3)cc3c2cnn3C(C)C)c(=O)[nH]1`: the pIC50 was 4.94 in assay [1]; 4.91 in assay [2]; below 4.70 in assay [3]; 5.50 in assay [4]; 6.59 in assay [5].

The record behind these values is ChEMBL document CHEMBL5325470, “Design, synthesis and mechanism studies of dual EZH2/BRD4 inhibitors for cancer therapy” (Bioorg Med Chem, 2023).
